{"source": "patent US8614179B2", "about": "“Antibacterial combination therapy for the treatment of gram positive bacterial infections” (E-Therapeutics PLC, priority 2008, dated 2013)", "key": {"Pseudomonas aeruginosa": {"test_system": "Pseudomonas aeruginosa", "assay": "MIC by agar dilution, Pseudomonas aeruginosa", "format": "cell-based", "method": "(§1) Other solvents that may be used include caster oil, pyridine, and 0.9% saline. For IV administration agents may be solubilised in polyethoxylated caster oil, or cyclodextrins such as sulfobutylether7-βcyclodextrin or hydroxypropyl-β-cyclodextrin and lactic acid. Minimum inhibitory concentrations (MICs) of a range of clinical and control bacterial organisms were measured according to BSAC (British Society for Antimicrobial Chemotherapy) guidelines (Andrews 2001), for single agents. The method of determining MICs of imidazole with colistin, D-cycloserine, fosfomycin, polymixin B, or nisin is described briefly as follows. MICs were measured by agar dilution. Kill curves were performed in accordance with the methods of Garrison and Nuemiller, 2007. Briefly kill profiles were generated by logarithmically plotting mean CFU/mL data over time. Total logarithmic reductions in bacterial counts were determined by subtracting 24 h CFU/mL values from starting inocula.\n(§2) Stock solutions were prepared at concentrations of 1000 mg/L and 100 mg/L. To determine the MIC of miconazole, the appropriate amount of each stock solution were added to separate Petri dishes give a range of final concentrations (after the addition of 20 mL molten agar): from 0.12 to 32 mg/L. To determine the MICs of miconazole with the specific agent active on a bacterial cell surface, these concentrations of miconazole were used in addition to a fixed sub-inhibitory amount of the agent active on a bacterial cell surface. […] Volumes (20 mL) of cooled molten IST agar (oxoid) was added to each Petri dish and mixed by swirling. After drying, the plates were stored at 4° C. and protected from light. Plates were used on the day of preparation.\n(§3) The test organisms were grown overnight in 5 mL IST broth. Using a dilution in 0.9% saline of 1:100, the appropriate agar plates were inoculated using a multipoint inoculator. […]\n(§4) The MIC is the minimum amount of an antibiotic at which there is no visible growth of bacteria. Tiny single colonies or faint hazes were not counted as growth. […]"}, "Escherichia coli": {"test_system": "Escherichia coli", "assay": "MIC by agar dilution, Escherichia coli", "format": "cell-based", "method": "as §1, §2, §3, §4"}, "[1]": {"test_system": "Enterococcus faecalis (VRE)", "assay": "MIC by agar dilution, Enterococcus faecalis (VRE)", "format": "cell-based", "method": "as §1, §2, §3, §4"}, "[2]": {"test_system": "Staphylococcus epidermidis", "assay": "MIC by agar dilution, Staphylococcus epidermidis", "format": "cell-based", "method": "as §1, §2, §3, §4"}, "VISA": {"test_system": "VISA", "assay": "microbe, parasite or virus in culture", "format": "cell-based", "conditions": "Staphylococcus aureus", "method": "(§5) In example experiments miconazole nitrate, econazole nitrate and clotrimazole were dissolved in DMSO. Colistin, D-cycloserine, fosfomycin and polymixin B were dissolved in water. Nisin was suspended at 10 mg/mL in 0.02 M HCl, and the supernatant fraction following centrifugation at 10,000 g for 10 mins was used in the following experiments.\nas §1, §2\n(§6) The test organisms were grown overnight in 5 mL IST broth. Using a dilution in 0.9% saline of 1:100, the appropriate agar plates were inoculated using a multipoint inoculator.\n(§7) Agar plates and microtitre plates were incubated at 37° C. in air for 18-20 hours.\n(§8) The MIC is the minimum amount of an antibiotic at which there is no visible growth of bacteria. Tiny single colonies or faint hazes were not counted as growth. Synergy was reported if the inhibitory effect of the drugs in combination were greater than the sum of the inhibitory effects of each drug singly. The concentration of miconazole, with or without the cell membrane or cell wall active agent, capable of inhibiting the growth of 50% and 90% of the strains tested is reported as the MIC50 and MIC90 respectively. The range of MICs for each group of bacterial strains is also reported."}, "[3]": {"test_system": "Enterococcus faecium (VRE)", "assay": "microbe, parasite or virus in culture", "format": "cell-based", "method": "as §5, §1, §2, §6, §7, §8"}, "[4]": {"conditions": "in vivo, cited from earlier work"}, "MRSA AND VRE": {"test_system": "MRSA AND VRE", "assay": "MIC by agar dilution, MIC50/MIC90/range over MRSA and VRE strain panel", "format": "cell-based, Staphylococcus aureus; Enterococci", "method": "In example experiments miconazole nitrate, econazole nitrate and clotrimazole were dissolved in DMSO. Colistin, D-cycloserine, fosfomycin and polymixin B were dissolved in water.\nas §1, with “The method of determining MICs of imidazole with colistin, D-cycloserine, fosfomycin, polymixin B, or nisin is described briefly as follows.” left out\nas §2, §3\nas §8, with “Synergy was reported if the inhibitory effect of the drugs in combination were greater than the sum of the inhibitory effects of each drug singly.” left out"}, "[5]": {"conditions": "Table 2, strain USA/VISA 5827, read-out: MIC"}, "[6]": {"conditions": "Table 2, strain USA/VISA 5836, read-out: MIC"}, "[7]": {"conditions": "Table 2, strain VISA 3900 UK, read-out: MIC"}, "[8]": {"conditions": "ATCC 4147 / VRE, Table 2, strain E15 VanA ATCC 4147, read-out: MIC"}, "[9]": {"conditions": "NCTC 7171 / VRE, Table 2, strain NCTC 7171, read-out: MIC"}, "[10]": {"conditions": "VRE, Table 2, strain E19 UAA/522 VanB, read-out: MIC"}, "[11]": {"conditions": "VRE, Table 2, strain VanR B145344C LFE, read-out: MIC"}}, "note": "Like-named read-outs stand apart in the source and are kept apart here.", "data": [{"compound": "c1ccc(-c2ccc(C(c3ccccc3)n3ccnc3)cc2)cc1", "note": "(stereo not drawn) [Bifonazole]", "values": [{"measurement": "MIC", "setting": "Pseudomonas aeruginosa; NCTC10662, Table 2, strain NCTC 10662, read-out: MIC", "result": "> 128", "unit": "µg/mL"}, {"measurement": "MIC", "setting": "Escherichia coli; NCTC10418, Table 2, strain NCTC 10418, read-out: MIC", "result": "> 128", "unit": "µg/mL"}, {"measurement": "MIC", "setting": "[1]; Table 2, strain E8 VanA, read-out: MIC", "result": "> 128", "unit": "µg/mL"}, {"measurement": "MIC", "setting": "[2]; ATCC1228, Table 2, strain ATCC 1228, read-out: MIC", "result": "> 128", "unit": "µg/mL"}, {"measurement": "MIC", "setting": "VISA; [5]", "result": "> 128", "unit": "µg/mL"}, {"measurement": "MIC", "setting": "VISA; [6]", "result": "> 128", "unit": "µg/mL"}, {"measurement": "MIC", "setting": "VISA; [7]", "result": "> 128", "unit": "µg/mL"}, {"measurement": "MIC", "setting": "[3]; [8]", "result": "> 128", "unit": "µg/mL"}, {"measurement": "MIC", "setting": "[3]; [9]", "result": "> 128", "unit": "µg/mL"}, {"measurement": "MIC", "setting": "[3]; [10]", "result": "> 128", "unit": "µg/mL"}, {"measurement": "MIC", "setting": "[3]; [11]", "result": "> 128", "unit": "µg/mL"}]}, {"compound": "Clc1ccccc1C(c1ccccc1)(c1ccccc1)n1ccnc1", "note": "[Clotrimazole, 1-[(2-Chlorophenyl)diphenylmethyl]-1H-imidazole]", "values": [{"measurement": "half-life", "setting": "[4]; human, po", "result": "around 3 hours"}, {"measurement": "absorption following oral administration", "setting": "[4]", "result": "well absorbed"}]}, {"compound": "N[C@@H]1CONC1=O", "note": "[D-cycloserine]", "values": [{"measurement": "inhibitory effect on the growth of the bacterial strains tested", "setting": "MRSA AND VRE; D-cycloserine alone at 10 mg/L", "result": "no inhibitory effect"}]}, {"compound": "OC(Cn1cncn1)(Cn1cncn1)c1ccc(F)cc1F", "note": "[Fluconazole]", "values": [{"measurement": "MIC", "setting": "Pseudomonas aeruginosa; NCTC10662", "result": "> 128", "unit": "µg/mL"}, {"measurement": "MIC", "setting": "Escherichia coli; NCTC10418", "result": "> 128", "unit": "µg/mL"}, {"measurement": "MIC", "setting": "[1]", "result": "> 128", "unit": "µg/mL"}, {"measurement": "MIC", "setting": "[2]; ATCC1228", "result": "> 128", "unit": "µg/mL"}, {"measurement": "MIC", "setting": "VISA; Table 2, strain USA/VISA 5827", "result": "> 128", "unit": "µg/mL"}, {"measurement": "MIC", "setting": "VISA; Table 2, strain USA/VISA 5836", "result": "> 128", "unit": "µg/mL"}, {"measurement": "MIC", "setting": "VISA; Table 2, strain VISA 3900 UK", "result": "> 128", "unit": "µg/mL"}, {"measurement": "MIC", "setting": "[3]; ATCC 4147 / VRE, Table 2, strain E15 VanA ATCC 4147", "result": "> 128", "unit": "µg/mL"}, {"measurement": "MIC", "setting": "[3]; NCTC 7171 / VRE, Table 2, strain NCTC 7171", "result": "> 128", "unit": "µg/mL"}, {"measurement": "MIC", "setting": "[3]; VRE, Table 2, strain E19 UAA/522 VanB", "result": "> 128", "unit": "µg/mL"}, {"measurement": "MIC", "setting": "[3]; VRE, Table 2, strain VanR B145344C LFE", "result": "> 128", "unit": "µg/mL"}]}, {"compound": "CC(=O)N1CCN(c2ccc(OCC3COC(Cn4ccnc4)(c4ccc(Cl)cc4Cl)O3)cc2)CC1", "note": "(stereo not drawn) [Ketoconazole]", "values": [{"measurement": "MIC", "setting": "Pseudomonas aeruginosa; NCTC10662", "result": "> 256", "unit": "µg/mL"}, {"measurement": "MIC", "setting": "Escherichia coli; NCTC10418", "result": "> 256", "unit": "µg/mL"}, {"measurement": "MIC", "setting": "[1]", "result": "> 256", "unit": "µg/mL"}, {"measurement": "MIC", "setting": "[2]; ATCC1228", "result": 64, "unit": "µg/mL"}, {"measurement": "MIC", "setting": "VISA; [5]", "result": 64, "unit": "µg/mL"}, {"measurement": "MIC", "setting": "VISA; [6]", "result": 64, "unit": "µg/mL"}, {"measurement": "MIC", "setting": "VISA; [7]", "result": 64, "unit": "µg/mL"}, {"measurement": "MIC", "setting": "[3]; [8]", "result": 16, "unit": "µg/mL"}, {"measurement": "MIC", "setting": "[3]; [9]", "result": 128, "unit": "µg/mL"}, {"measurement": "MIC", "setting": "[3]; [10]", "result": 128, "unit": "µg/mL"}, {"measurement": "MIC", "setting": "[3]; [11]", "result": 128, "unit": "µg/mL"}]}, {"compound": "C[C@@H]1O[C@@H]1P(=O)(O)O", "note": "[fosfomycin]", "values": [{"measurement": "inhibitory effect on the growth of the bacterial strains tested", "setting": "MRSA AND VRE; fosfomycin alone at 5 mg/L", "result": "no inhibitory effect"}]}, {"compound": "colistin", "values": [{"measurement": "inhibitory effect on the growth of the bacterial strains tested", "setting": "MRSA AND VRE; colistin alone at 5 mg/L", "result": "no inhibitory effect"}]}, {"compound": "polymixin B", "values": [{"measurement": "inhibitory effect on the growth of the bacterial strains tested", "setting": "MRSA AND VRE; polymixin B alone at 20 mg/L", "result": "no inhibitory effect"}]}]}
